Laboratory results taken from US8921360B2, “Heterobicycle-substituted azolyl benzene fungicides” (priority 2009, dated 2014).

Experiments:
Assay type in all cases: in vivo
Septoria tritici = test: Test E: wheat leaf blotch, preventive spray on wheat seedlings; conditions: 200 ppm; wheat seedlings sprayed to run-off, inoculated next day, rated after 48 h + 19 days
From the text: General protocol for preparing test suspensions for Tests A-G: the test compounds were first dissolved in acetone in an amount equal to 11% of the final volume and then suspended at the desired concentration (in ppm) in acetone and purified water (50/50 mix by volume) containing 250 ppm of the surfactant Trem® 014 (polyhydric alcohol esters). The resulting test suspensions were then used in Tests A-G. Spraying a 200 ppm test suspension to the point of run-off on the test plants was the equivalent of a rate of 800 g/ha. The test suspension was sprayed to the point of run-off on wheat seedlings. The following day the seedlings were inoculated with a spore suspension of Septoria tritici (the causal agent of wheat leaf blotch) and incubated in a saturated atmosphere at 24° C. for 48 h, and then moved to a growth chamber at 20° C. for 19 days, after which time disease ratings were visually made. Results for Tests A-G are given in Table A. In the Table, a rating of 100 indicates 100% disease control and a rating of 0 indicates no disease control (relative to the controls). A dash (-) indicates no test results. All results are for 200 ppm except where followed by an “*”, which indicates 40 ppm.

Septoria nodorum = test: Test D: wheat glume blotch, preventive spray on wheat seedlings; conditions: 200 ppm; wheat seedlings sprayed to run-off, inoculated next day, rated after 48 h + 7 days
From the text: General protocol for preparing test suspensions for Tests A-G: the test compounds were first dissolved in acetone in an amount equal to 11% of the final volume and then suspended at the desired concentration (in ppm) in acetone and purified water (50/50 mix by volume) containing 250 ppm of the surfactant Trem® 014 (polyhydric alcohol esters). The resulting test suspensions were then used in Tests A-G. Spraying a 200 ppm test suspension to the point of run-off on the test plants was the equivalent of a rate of 800 g/ha. The test suspension was sprayed to the point of run-off on wheat seedlings. The following day the seedlings were inoculated with a spore suspension of Septoria nodorum (the causal agent of wheat glume blotch) and incubated in a saturated atmosphere at 20° C. for 48 h, and then moved to a growth chamber at 20° C. for 7 days, after which time disease ratings were visually made. Results for Tests A-G are given in Table A. In the Table, a rating of 100 indicates 100% disease control and a rating of 0 indicates no disease control (relative to the controls). A dash (-) indicates no test results. All results are for 200 ppm except where followed by an “*”, which indicates 40 ppm.

Alternaria solani = test: Test G: tomato early blight, preventive spray on tomato seedlings; conditions: 200 ppm; tomato seedlings sprayed to run-off, inoculated next day, rated after 48 h + 5 days
From the text: General protocol for preparing test suspensions for Tests A-G: the test compounds were first dissolved in acetone in an amount equal to 11% of the final volume and then suspended at the desired concentration (in ppm) in acetone and purified water (50/50 mix by volume) containing 250 ppm of the surfactant Trem® 014 (polyhydric alcohol esters). The resulting test suspensions were then used in Tests A-G. Spraying a 200 ppm test suspension to the point of run-off on the test plants was the equivalent of a rate of 800 g/ha. The test suspension was sprayed to the point of run-off on tomato seedlings. The following day the seedlings were inoculated with a spore suspension of Alternaria solani (the causal agent of tomato early blight) and incubated in a saturated atmosphere at 27° C. for 48 h, and then moved to a growth chamber at 24° C. for 5 days, after which time disease ratings were visually made. Results for Tests A-G are given in Table A. In the Table, a rating of 100 indicates 100% disease control and a rating of 0 indicates no disease control (relative to the controls). A dash (-) indicates no test results. All results are for 200 ppm except where followed by an “*”, which indicates 40 ppm.

Botrytis cinerea = test: Test F: tomato botrytis, preventive spray on tomato seedlings; conditions: 200 ppm; tomato seedlings sprayed to run-off, inoculated next day, rated after 48 h + 3 days
From the text: General protocol for preparing test suspensions for Tests A-G: the test compounds were first dissolved in acetone in an amount equal to 11% of the final volume and then suspended at the desired concentration (in ppm) in acetone and purified water (50/50 mix by volume) containing 250 ppm of the surfactant Trem® 014 (polyhydric alcohol esters). The resulting test suspensions were then used in Tests A-G. Spraying a 200 ppm test suspension to the point of run-off on the test plants was the equivalent of a rate of 800 g/ha. The test suspension was sprayed to the point of run-off on tomato seedlings. The following day the seedlings were inoculated with a spore suspension of Botrytis cinerea (the causal agent of tomato botrytis) and incubated in saturated atmosphere at 20° C. for 48 h, and then moved to a growth chamber at 27° C. for 3 additional days, after which time disease ratings were visually made. Results for Tests A-G are given in Table A. In the Table, a rating of 100 indicates 100% disease control and a rating of 0 indicates no disease control (relative to the controls). A dash (-) indicates no test results. All results are for 200 ppm except where followed by an “*”, which indicates 40 ppm.

[1] = system: Puccinia recondita f sp. tritici; test: Test B: wheat leaf rust, preventive spray on wheat seedlings; conditions: 200 ppm; wheat seedlings sprayed to run-off, inoculated next day, rated after 24 h + 7 days
From the text: General protocol for preparing test suspensions for Tests A-G: the test compounds were first dissolved in acetone in an amount equal to 11% of the final volume and then suspended at the desired concentration (in ppm) in acetone and purified water (50/50 mix by volume) containing 250 ppm of the surfactant Trem® 014 (polyhydric alcohol esters). The resulting test suspensions were then used in Tests A-G. Spraying a 200 ppm test suspension to the point of run-off on the test plants was the equivalent of a rate of 800 g/ha. The test suspension was sprayed to the point of run-off on wheat seedlings. The following day the seedlings were inoculated with a spore suspension of Puccinia recondita f sp. tritici (the causal agent of wheat leaf rust) and incubated in a saturated atmosphere at 20° C. for 24 h, and then moved to a growth chamber at 20° C. for 7 days, after which time disease ratings were visually made. Results for Tests A-G are given in Table A. In the Table, a rating of 100 indicates 100% disease control and a rating of 0 indicates no disease control (relative to the controls). A dash (-) indicates no test results. All results are for 200 ppm except where followed by an “*”, which indicates 40 ppm.

[2] = system: Erysiphe graminis f. sp. tritici; test: Test A: wheat powdery mildew, preventive spray on wheat seedlings; conditions: 200 ppm; wheat seedlings sprayed to run-off, inoculated next day, rated after 8 days; 100 = 100% disease control, 0 = no control
From the text: General protocol for preparing test suspensions for Tests A-G: the test compounds were first dissolved in acetone in an amount equal to 11% of the final volume and then suspended at the desired concentration (in ppm) in acetone and purified water (50/50 mix by volume) containing 250 ppm of the surfactant Trem® 014 (polyhydric alcohol esters). The resulting test suspensions were then used in Tests A-G. Spraying a 200 ppm test suspension to the point of run-off on the test plants was the equivalent of a rate of 800 g/ha. The test suspension was sprayed to the point of run-off on wheat seedlings. The following day the seedlings were inoculated with a spore dust of Erysiphe graminis f. sp. tritici, (the causal agent of wheat powdery mildew) and incubated in a growth chamber at 20° C. for 8 days, after which time disease ratings were visually made. Results for Tests A-G are given in Table A. In the Table, a rating of 100 indicates 100% disease control and a rating of 0 indicates no disease control (relative to the controls). A dash (-) indicates no test results. All results are for 200 ppm except where followed by an “*”, which indicates 40 ppm.

[3] = system: Puccinia recondita f. sp. tritici; test: Test C: wheat leaf rust, spray the day after inoculation of wheat seedlings; conditions: 200 ppm; wheat seedlings inoculated, sprayed the following day, rated after 5 days;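 also: Curative spray on infected wheat seedlings with visual rating 5 days later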
From the text: General protocol for preparing test suspensions for Tests A-G: the test compounds were first dissolved in acetone in an amount equal to 11% of the final volume and then suspended at the desired concentration (in ppm) in acetone and purified water (50/50 mix by volume) containing 250 ppm of the surfactant Trem® 014 (polyhydric alcohol esters). The resulting test suspensions were then used in Tests A-G. Spraying a 200 ppm test suspension to the point of run-off on the test plants was the equivalent of a rate of 800 g/ha. Wheat seedlings were inoculated with a spore suspension of Puccinia recondita f. sp. tritici (the causal agent of wheat leaf rust) and incubated in a saturated atmosphere at 20° C. for 24 h. The following day, the test suspension was sprayed to the point of run-off on the wheat seedlings and then moved to a growth chamber at 20° C. for 5 days, after which time disease ratings were visually made. Results for Tests A-G are given in Table A. In the Table, a rating of 100 indicates 100% disease control and a rating of 0 indicates no disease control (relative to the controls). A dash (-) indicates no test results. All results are for 200 ppm except where followed by an “*”, which indicates 40 ppm.

SMILES | Percentage Disease Control Test E (Septoria tritici) | Percentage Disease Control Test D (Septoria nodorum) | Percentage Disease Control Test G (Alternaria solani) | Percentage Disease Control Test F (Botrytis cinerea) | Percentage Disease Control Test B [1] | Percentage Disease Control Test A [2] | Percentage Disease Control Test C [3]
COC(=O)NCc1cc(-n2ccc(-c3ccc4c(c3)C(F)CCO4)n2)ccc1F (stereo not drawn) [Compound 22] | 94% | 100% | 8% | 33% | 100% | 100% | 100%
COC(=O)NCc1cc(-c2ccn(-c3ccc4c(c3)N(C)C(=O)CO4)n2)ccc1F [Compound 13] | 24% | 97% | 54% | 7% | 100% | 90% | 28%
COC(=O)NCc1cc(-c2ccn(-c3ccc4c(c3)C=C(C#N)CO4)n2)ccc1Cl [Compound 27] | 0% | 100% | 86% | 66% | 99% | 0% | 0%
COC(=O)NCc1cc(-n2ccc(-c3ccc4c(c3)OCCO4)n2)ccc1F [Compound 10] | 98% | 100% | 84% | 94% | 100% | 100% | 100%
COC(=O)NCc1cc(-c2ccn(-c3ccc4c(c3)CCCO4)n2)ccc1Br [Compound 16] | 100% | 100% | 85% | 99% | 100% | 100% | 100%
COC(=O)NCc1cc(-c2ccn(-c3ccc4c(c3)OCCO4)n2)ccc1Br [Compound 17] | 99% | 100% | 93% | 87% | 100% | 100% | 100%
